From patent publication US7745161B2, “Amplification of enzymatic reactions for use with an enthalpy array” (Palo Alto Research Center Incorporated, priority 2003, dated 2010)

Target: T1, GPCR P2Y6 receptor complex (Homo sapiens, UniProt Q15077)
T1 construct: made in house; host or cells: baculovirus-inoculated insect cell (membrane fragments)
Experiment: Nanocalorimetry measurement of agonist binding to a GPCR, amplified by G-protein hydrolysis of GTP
Type: biochemical
Settings: after merging [UDP]=0.4 mM, [GTP]=1.15 mM
Excerpt: We have measured reactions involving agonist binding to a GPCR (G-protein coupled receptor), at low GPCR concentration, by using the associated G-protein hydrolysis of GTP as the source of the amplified heat of reaction. Most of the heat in this example is from GTP hydrolysis by G-proteins activated by a GPCR with a bound agonist. GPCRs are transmembrane proteins that bind […] (e.g. agonist or inhibitor) on the extracellular side and, upon receptor binding, cause a G-protein (also a membrane protein) on the intracellular side to exchange GDP for GTP. After binding GTP, the G-protein dissociates from the GPCR, and the α subunit dissociates from the β-γ complex. The α subunit and β-γ complex can then migrate independently along the membrane and interact with targets.
Explaining this measurement in terms of FIG. 2A, the GPCR is the primary enzyme 44. We refer to the GPCR as an enzyme because it catalyzes the exchange of GDP for GTP on the G-protein and the subsequent dissociation of the α subunit of the G-protein from the β-γ complex. The G-protein before the GDP-GTP exchange and dissociation can be considered the substrate 40. The GPCR is also […], and as such it is activated in this example by binding of agonist, which is therefore an activator 42. The products 46 of the primary enzymatic reaction are the α subunit and β-γ complex of the dissociated G-protein. […]

T1 sequence (Q15077 whole entry, the tested form may be a part, one chain of several): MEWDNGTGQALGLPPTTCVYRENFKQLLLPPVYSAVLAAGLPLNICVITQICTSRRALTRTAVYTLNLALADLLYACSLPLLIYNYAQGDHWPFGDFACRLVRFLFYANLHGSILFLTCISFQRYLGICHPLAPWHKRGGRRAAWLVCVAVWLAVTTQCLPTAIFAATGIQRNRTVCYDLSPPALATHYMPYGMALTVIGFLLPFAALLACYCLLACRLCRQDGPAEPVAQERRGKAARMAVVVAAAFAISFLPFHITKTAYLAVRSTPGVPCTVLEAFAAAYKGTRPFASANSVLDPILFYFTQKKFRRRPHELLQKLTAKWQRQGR

nanocalorimeter signal magnitude (differential temperature) (fragmented membranes with over-expressed P2Y6, 1 mg/ml total protein, 250 nL drops): 1.2 m° C.
duration of nanocalorimeter signal after the drops are merged (fragmented membranes with over-expressed P2Y6): 1 to 2 s
Structure (SMILES): O=c1ccn([C@@H]2O[C@H](COP(=O)(O)OP(=O)(O)O)[C@@H](O)[C@H]2O)c(=O)[nH]1 [UDP]
